Test results from PubChem BioAssay (NCI).
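Dose response: 5 concentrations. Exposure: 48 h. Format: 96-well plates. Endpoint: linear interpolation; highest concentration if not reached. TGI is the concentration that stops growth completely.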

Experiments:
Experiment in all cases: NCI anticancer screen, dose series, 48 h
[1] = tested on: MDA-N
[2] = tested on: 786-0 renal
[3] = tested on: SR leukemia
[4] = tested on: MCF7 breast
[5] = tested on: RPMI-8226 leukemia
[6] = tested on: NCI/ADR-RES ovarian
[7] = tested on: U251 CNS
[8] = tested on: HOP-62 NSCLC
[9] = tested on: T-47D breast
[10] = tested on: OVCAR-5 ovarian
[11] = tested on: CAKI-1 renal
[12] = tested on: NCI-H460 lung
[13] = tested on: DU-145 prostate
[14] = tested on: UO-31 renal
[15] = tested on: K-562 leukemia
[16] = tested on: HL-60(TB) leukemia
[17] = tested on: OVCAR-8 ovarian
[18] = tested on: A549 NSCLC
[19] = tested on: UACC-62 melanoma
[20] = tested on: ACHN renal
[21] = tested on: EKVX NSCLC
[22] = tested on: KM12 colon
[23] = tested on: SK-MEL-2 melanoma
[24] = tested on: SK-MEL-5 melanoma
[25] = tested on: SF-295 CNS
[26] = tested on: A498 renal
[27] = tested on: SW-620 colon
[28] = tested on: OVCAR-3 ovarian
[29] = tested on: SK-OV-3 ovarian
[30] = tested on: NCI-H522 lung
[31] = tested on: MDA-MB-435
[32] = tested on: M14 melanoma
[33] = tested on: HCT-116 colon
[34] = tested on: HT29 colon
[35] = tested on: IGROV1 ovarian
[36] = tested on: PC-3 prostate
[37] = tested on: SF-539 CNS
[38] = tested on: SF-268 CNS
[39] = tested on: MOLT-4 leukemia
[40] = tested on: COLO 205 colon
[41] = tested on: HCC-2998 colon
[42] = tested on: SK-MEL-28 melanoma
[43] = tested on: HCT-15 colon
[44] = tested on: SNB-19 CNS
[45] = tested on: BT-549 breast
[46] = tested on: CCRF-CEM leukemia
[47] = tested on: OVCAR-4 ovarian
[48] = tested on: LOX IMVI melanoma
[49] = tested on: NCI-H23 lung
[50] = tested on: MALME-3M melanoma
[51] = tested on: HS 578T breast
[52] = tested on: UACC-257 melanoma
[53] = tested on: RXF 393 renal
[54] = tested on: NCI-H226 lung
[55] = tested on: SNB-75 CNS
[56] = tested on: TK-10 renal
[57] = tested on: MDA-MB-231 breast
[58] = tested on: HOP-92 NSCLC
[59] = tested on: SN12C renal

`CN1CCN(Cc2ccc(C(=S)Nc3ccccc3)s2)CC1` gave a TGI [1] of over 100 µM, a TGI [2] of over 100 µM and a TGI [3] of 73 µM. The TGI [4] was over 100 µM, the TGI [5] was over 100 µM and the TGI [6] was over 100 µM. For the same compound, the TGI [7] was over 100 µM, the TGI [8] was over 100 µM and the TGI [9] was over 100 µM. For the same compound, the TGI [10] was over 100 µM, the TGI [11] was over 100 µM and the TGI [12] was over 100 µM. For the same compound, the TGI [13] was over 100 µM, the TGI [14] was over 100 µM and the TGI [15] was 95.9 µM. It also gave a TGI [16] of over 100 µM, a TGI [17] of over 100 µM and a TGI [18] of over 100 µM. It also gave a TGI [19] of 41.3 µM, a TGI [20] of over 100 µM and a TGI [21] of over 100 µM. For the same compound, the TGI [22] was over 100 µM, the TGI [23] was over 100 µM and the TGI [24] was 34.1 µM. It also gave a TGI [25] of over 100 µM, a TGI [26] of over 100 µM and a TGI [27] of over 100 µM. For the same compound, the TGI [28] was over 100 µM, the TGI [29] was over 100 µM and the TGI [30] was over 100 µM. For the same compound, the TGI [31] was over 100 µM, the TGI [32] was 31.9 µM and the TGI [33] was over 100 µM. For the same compound, the TGI [34] was 47.1 µM, the TGI [35] was 75.8 µM and the TGI [36] was over 100 µM. The TGI [37] was over 100 µM, the TGI [38] was over 100 µM and the TGI [39] was over 100 µM. The TGI [40] was 45.9 µM, the TGI [41] was over 100 µM and the TGI [42] was 36.1 µM. It also gave a TGI [43] of 55.4 µM, a TGI [44] of over 100 µM and a TGI [45] of 76.3 µM. The TGI [46] was over 100 µM, the TGI [47] was over 100 µM and the TGI [48] was 31.9 µM. For the same compound, the TGI [49] was 61.8 µM, the TGI [50] was over 100 µM and the TGI [51] was over 100 µM. For the same compound, the TGI [52] was over 100 µM.

`COc1ccc(/C=C2\N=C3N(Cc4ccccc4)C=C(N)N3C2=O)cc1` gave a TGI [1] of over 100 µM, a TGI [2] of over 100 µM and a TGI [53] of over 100 µM. For the same compound, the TGI [4] was over 100 µM, the TGI [6] was over 100 µM and the TGI [7] was 92.3 µM. For the same compound, the TGI [54] was over 100 µM, the TGI [8] was over 100 µM and the TGI [9] was over 100 µM. It also gave a TGI [10] of over 100 µM, a TGI [11] of over 100 µM and a TGI [12] of over 100 µM. It also gave a TGI [13] of over 100 µM, a TGI [55] of 50.7 µM and a TGI [14] of over 100 µM. The TGI [15] was over 100 µM, the TGI [16] was over 100 µM and the TGI [17] was over 100 µM. It also gave a TGI [18] of over 100 µM, a TGI [19] of over 100 µM and a TGI [20] of over 100 µM. The TGI [21] was over 100 µM, the TGI [22] was over 100 µM and the TGI [56] was over 100 µM. For the same compound, the TGI [23] was over 100 µM, the TGI [24] was over 100 µM and the TGI [25] was over 100 µM. The TGI [26] was over 100 µM, the TGI [27] was over 100 µM and the TGI [28] was over 100 µM. For the same compound, the TGI [29] was over 100 µM, the TGI [30] was over 100 µM and the TGI [31] was over 100 µM. For the same compound, the TGI [32] was over 100 µM, the TGI [33] was over 100 µM and the TGI [34] was over 100 µM. For the same compound, the TGI [57] was over 100 µM, the TGI [35] was over 100 µM and the TGI [36] was over 100 µM. It also gave a TGI [37] of over 100 µM, a TGI [38] of over 100 µM and a TGI [39] of over 100 µM. It also gave a TGI [40] of over 100 µM, a TGI [41] of over 100 µM and a TGI [42] of over 100 µM. For the same compound, the TGI [43] was over 100 µM, the TGI [44] was 48.2 µM and the TGI [45] was over 100 µM. It also gave a TGI [46] of over 100 µM, a TGI [47] of over 100 µM and a TGI [48] of over 100 µM. It also gave a TGI [58] of over 100 µM, a TGI [49] of over 100 µM and a TGI [50] of over 100 µM. For the same compound, the TGI [51] was 73 µM, the TGI [59] was over 100 µM and the TGI [52] was over 100 µM.

In the case of `CC1OC23CCCCC2C(C#N)(C#N)C1(C#N)C(=N)O3` (centres undefined), the TGI [1] is reported as 35.8 µM, the TGI [2] is reported as 28.6 µM and the TGI [53] is reported as 44.5 µM. It also gave a TGI [4] of 52.3 µM, a TGI [6] of over 100 µM and a TGI [7] of 71.5 µM. The TGI [54] was over 100 µM, the TGI [9] was 53.6 µM and the TGI [10] was 52.6 µM. It also gave a TGI [11] of 19.8 µM, a TGI [12] of 43.5 µM and a TGI [13] of 66.5 µM. It also gave a TGI [55] of over 100 µM, a TGI [15] of over 100 µM and a TGI [16] of 22.1 µM. For the same compound, the TGI [17] was 54.1 µM, the TGI [18] was over 100 µM and the TGI [20] was 42.8 µM. The TGI [21] was 91.1 µM, the TGI [22] was 61.1 µM and the TGI [56] was 46.8 µM. It also gave a TGI [23] of 43.5 µM, a TGI [24] of 32.3 µM and a TGI [25] of over 100 µM. For the same compound, the TGI [26] was 61.6 µM, the TGI [27] was 98.3 µM and the TGI [28] was 36.5 µM. For the same compound, the TGI [29] was over 100 µM, the TGI [31] was 50.9 µM and the TGI [32] was 40.3 µM. For the same compound, the TGI [33] was 36.2 µM, the TGI [34] was over 100 µM and the TGI [57] was 32.1 µM. It also gave a TGI [35] of 41.9 µM, a TGI [36] of 69.2 µM and a TGI [37] of 45.1 µM. It also gave a TGI [38] of 60.3 µM, a TGI [39] of 90.1 µM and a TGI [40] of 38.5 µM. For the same compound, the TGI [41] was 50.1 µM, the TGI [42] was 56 µM and the TGI [43] was 37.6 µM. It also gave a TGI [44] of 65.2 µM, a TGI [45] of 34.4 µM and a TGI [46] of 46.8 µM. For the same compound, the TGI [48] was 40.2 µM, the TGI [58] was 29.3 µM and the TGI [49] was 52.7 µM. For the same compound, the TGI [50] was 43.5 µM, the TGI [51] was 57.8 µM and the TGI [59] was 30.1 µM. For the same compound, the TGI [52] was 37.6 µM.

Compound `CSC1=C(C)C(/C=N/Nc2ccc([N+](=O)[O-])cc2)=C(C)N(c2ccccc2)S1(=O)=O` has a TGI [1] of over 100 µM, a TGI [2] of over 100 µM and a TGI [3] of over 100 µM. It also gave a TGI [53] of over 100 µM, a TGI [4] of over 100 µM and a TGI [5] of over 100 µM. The TGI [6] was over 100 µM, the TGI [7] was over 100 µM and the TGI [54] was over 100 µM. For the same compound, the TGI [8] was over 100 µM, the TGI [9] was over 100 µM and the TGI [10] was over 100 µM. It also gave a TGI [11] of over 100 µM, a TGI [12] of over 100 µM and a TGI [13] of over 100 µM. For the same compound, the TGI [55] was over 100 µM, the TGI [14] was over 100 µM and the TGI [15] was over 100 µM. For the same compound, the TGI [16] was 17.5 µM, the TGI [17] was over 100 µM and the TGI [18] was over 100 µM. For the same compound, the TGI [19] was over 100 µM, the TGI [20] was over 100 µM and the TGI [21] was over 100 µM. For the same compound, the TGI [22] was over 100 µM, the TGI [56] was over 100 µM and the TGI [23] was over 100 µM. For the same compound, the TGI [24] was over 100 µM, the TGI [25] was over 100 µM and the TGI [26] was over 100 µM. For the same compound, the TGI [27] was over 100 µM, the TGI [28] was over 100 µM and the TGI [29] was over 100 µM. For the same compound, the TGI [30] was over 100 µM, the TGI [31] was over 100 µM and the TGI [32] was over 100 µM. For the same compound, the TGI [33] was over 100 µM, the TGI [34] was over 100 µM and the TGI [57] was over 100 µM. It also gave a TGI [35] of over 100 µM, a TGI [36] of over 100 µM and a TGI [37] of over 100 µM. It also gave a TGI [38] of over 100 µM, a TGI [39] of over 100 µM and a TGI [40] of over 100 µM. The TGI [41] was over 100 µM, the TGI [42] was over 100 µM and the TGI [43] was over 100 µM. The TGI [44] was over 100 µM, the TGI [45] was over 100 µM and the TGI [46] was over 100 µM. The TGI [47] was over 100 µM, the TGI [48] was over 100 µM and the TGI [58] was over 100 µM. For the same compound, the TGI [49] was over 100 µM, the TGI [50] was over 100 µM and the TGI [59] was over 100 µM. For the same compound, the TGI [52] was over 100 µM.
